Laboratory results: article PMC4602143, “A combined bioinformatics and functional metagenomics approach to discovering lipolytic biocatalysts” (Frontiers in Microbiology, 2015)
Like-named read-outs stand apart in the source and are kept apart here.

Test system: T1, PL-GOS
T1 construct: synthetic gene; N-terminal His6 with TEV site, tag cut by TEV protease; E. coli BL21(DE3) strain TMBL1503, pET-11a
Assay: pNP release, OD405, Lineweaver-Burk
Format: biochemical, metagenome: ocean surface water (Global Ocean Sampling)
Details: 50 mM Tris-HCl pH 7.3, 20°C, 65 nM enzyme
From the text: pNP release, OD405, Lineweaver-Burk on PL-GOS

Km (substrate above 20 μM (non-Michaelis-Menten below), read-out: pNP-palmitate) [µM]	Km (read-out: pNP-butyrate) [µM]	Structure (SMILES)
68.1		CCCCCCCCCCCCCCCC(=O)Oc1ccc([N+](=O)[O-])cc1 [pNP-palmitate]
	66.7	CCCC(=O)Oc1ccc([N+](=O)[O-])cc1 [pNP-butyrate]
